Measurements from patent publication US5187157A, “Peptide boronic acid inhibitors of trypsin-like proteases” (Du Pont Merck Pharmaceutical Company, priority 1988, dated 1993).
pKi: −log10 of the molar value.

Experiments:
normal human plasma [1] = assay: Prothrombin times (PT), blood coagulation in vitro; format: biochemical; conditions: for Calc. Concentration 2 × XPT: approximate concentration required to increase PT two fold
Protocol: (§1) The effectiveness of inhibitors in reactions in which they compete with natural substrates for target enzymes is measured in vitro in blood coagulation assays. Two different assays are used, the APTT (activated partial thromboplastin times) and PT (prothrombin times) assays. These assays mimic the blood clotting process in vivo. Blood coagulation occurs through either of two pathways, each consisting of a cascades of zymogen activation steps. The pathways are termed the intrinsic and the extrinsic pathways (see L. Lorand, Methods in Enzymology 45: 31-37 (1976). The intrinsic pathway is initiated by negatively charged surfaces in which plasma kallikrein, factor XII and factor […] are activated and then factors IX and X and prothrombin are activated in calcium dependent steps. Thrombin, the last protease in the cascade, hydrolyses fibrinogen to fibrin which results in clot formation. In the APTT assay, plasma components are activated by exposure to negatively charged surfaces and then clotting times are measured after calcium is added to the system. In the extrinsic pathway, tissue thromboplastin activates factor VII which then activates factor X leading to the activation of thrombin. These events are measured in the prothrombin times assay.
For PT assays, inhibitor solutions (0.100 mL) were incubated with normal human plasma (0.100 mL) for 2 min at 37°.

Human thrombin = target: T1, Human thrombin (Homo sapiens, UniProt P00734); assay: Inhibition of Thrombin (Esterase Activity); format: biochemical; conditions: activity remaining 10 to 20 min after initiation
T1 construct: purchased R.Q.P. Laboratories, South Bend, IN Lot HT102
Protocol: (§2) In the Examples which follow, the hydrolytic activity of each enzyme is measured in both the presence and absence of inhibitor and the percent enzyme activity determined. […] A steady state is reached fairly rapidly and nears completion within 5 min. Activity is evaluated between 10-20 min after the components are mixed to insure that reaction components are at equilibrium. The lowest concentration of inhibitor tested is determined by the estimated concentration of enzyme. […] The maintenance of pseudo-first-order reaction conditions and the sensitivity of the respective assays sets the lowest limit level of inhibitor tested at 10 nM for kallikrein inhibitors and 5 nM for thrombin inhibitors.
A stock solution of thrombin was prepared in 0.010M PIPES Buffer, pH 6.0, containing 0.75 M sodium chloride. […] The initial concentration of substrate was 0.10 mM and the concentration of thrombin was 1.0 nM (based on weight).

[2] = Stability of Inhibitors in Buffer (thrombin assay); conditions: for Percent Thrombin activity: 1.0 μM; for stability in phosphate buffer at pH 7.5 (inhibitory activity): phosphate buffer pH 7.5
Protocol: Samples of the inhibitors are removed at increasing time intervals and their ability to delay clotting is measured at each interval.
Inhibitors, each at a concentration of 1.0 μM, were incubated at room temperature in 0.20 M sodium phosphate buffer, pH 7.5, containing 0.20 M sodium chloride and 0.10% PEG.

normal human plasma [3] = assay: Activated partial thromboplastin times (APTT), blood coagulation in vitro; format: biochemical; conditions: for Calc. Concentration 2 × APTT: approximate concentration required to increase APTT two fold
Protocol: as §1
The effect of protease inhibitors on blood coagulation in vitro was determined by measuring their effects on two different clinical parameters, the activated partial thromboplastin times (APTT) and prothrombin times (PT). Reagents for each of these assays were supplied by General Diagnostics, Jessup MD. Stock solutions of inhibitors were prepared in […] HEPES buffer, pH 7.5, containing 0.10 M sodium chloride. For the APTT assay, the inhibitor solution (0.100 mL) was incubated with normal human plasma (0.100 mL) and automated APTT reagent (0.100 mL). After incubation for 5.0 min at 37°, calcium chloride (0.100 mL) was added and the clotting times, measured in seconds, was determined on a fibrameter. The effects of the varying concentrations of inhibitor on blood clotting times compared with the clotting times of controls run in the absence of inhibitor, are shown in Table 3.

Sprague Dawley CD Rats = assay: In Vivo Inhibition of Croton Oil Induced Inflammation (ear swelling); conditions: Table 14; dose=100 μg, essentially the same conditions
Protocol: Two solutions were prepared, the first consisting of 5% croton oil, a known inflammatory agent, in an acetone carrier (Croton Solution) and the second consisting of 5% croton oil in an acetone carrier to which 10 mg/mL of a compound of the invention was added (Compound Solution). The Croton Solution (10 μL), or alternatively the Compound Solution (10 μL), was applied to the right ear of each animal (Sprague Dawley CD Rats, 130-140 g, supplied by Charles River Labs, Inc., Wilmington, MA). […] "SE" denotes standard error.

[4] = Stability of Inhibitors in Human Plasma As Measured By APTT; format: in vitro ADME; conditions: for Clotting Time: 250 nM in APTT assay
Protocol: The stability of inhibitors in plasma was determined by their ability to inhibit blood coagulation. First, a stock solutions (1.0 μM) of the inhibitors to be tested in 25 mM HEPES buffer, pH 7.5, containing 0.10 M sodium chloride were diluted 50% with normal human plasma. The mixtures were made at 0°, then aliquots (0.200 mL) were removed and incubated for 2 min at 37°. An equal volume of automated APTT reagent was added and clotting times were measured as described in Examples 111-117. The final concentration of inhibitor during the clotting assays was 250 nM. Values for compounds E and F were determined simultaneously with the Control. Values for compounds A, B and C were obtained on a different day.

Human plasma kallikrein = target: T2, Human plasma kallikrein (Homo sapiens, UniProt P03952); assay: Inhibition of Human Plasma Kallikrein; format: biochemical; conditions: inhibitor 10 nM; activity remaining 10 to 20 min after initiation
T2 construct: purchased Protogen AG (Switzerland)
Protocol: as §2
Human plasma kallikrein was obtained from Protogen AG (Switzerland). The specific activity as described by the supplier is 15 units per mg. A unit is defined as the quantity of enzyme required to hydrolyze 1 μmole of substrate, H-(D)Pro-Phe-Arg-p-nitroanilide (Kabi S2302), per min at a substrate concentration of 0.50 mM at 25° in 50 mM potassium phosphate buffer, pH 8.0.

rats = conditions: Tremoli et al.; cited from earlier work
thrombin = conditions: literature; cited from earlier work
rabbit = rabbit model; Shaw et al.; cited from earlier work
[5] = 0 hr in 0.20 M sodium phosphate buffer pH 7.5, room temperature
[6] = incubation in human plasma 0.5 h
[7] = incubation in human plasma 24 h

T2 sequence (P03952 391-638 limits assumed): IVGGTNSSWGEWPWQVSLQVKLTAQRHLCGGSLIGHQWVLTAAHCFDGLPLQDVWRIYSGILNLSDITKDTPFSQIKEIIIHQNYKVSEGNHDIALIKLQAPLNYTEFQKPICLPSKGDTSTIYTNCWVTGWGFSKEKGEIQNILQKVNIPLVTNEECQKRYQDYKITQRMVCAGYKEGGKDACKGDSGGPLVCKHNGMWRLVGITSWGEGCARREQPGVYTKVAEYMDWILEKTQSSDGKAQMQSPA
T2 sequence (P03952 20-390 partner limits assumed): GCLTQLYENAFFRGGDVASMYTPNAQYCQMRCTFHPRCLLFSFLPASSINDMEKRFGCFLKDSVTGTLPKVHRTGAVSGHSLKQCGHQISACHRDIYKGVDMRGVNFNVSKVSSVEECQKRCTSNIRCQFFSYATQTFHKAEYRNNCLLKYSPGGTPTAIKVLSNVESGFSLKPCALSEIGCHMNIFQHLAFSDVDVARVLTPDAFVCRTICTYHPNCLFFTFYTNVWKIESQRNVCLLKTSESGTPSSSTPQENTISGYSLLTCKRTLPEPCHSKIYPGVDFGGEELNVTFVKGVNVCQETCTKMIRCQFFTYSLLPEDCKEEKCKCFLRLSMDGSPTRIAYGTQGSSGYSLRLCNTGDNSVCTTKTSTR

SMILES | Calc. Concentration 2 × XPT (normal human plasma [1]) [nM] | Prothrombin Times (normal human plasma [1]; inhibitor 12.5 nM) [s] | Prothrombin Times (normal human plasma [1]; inhibitor 250 nM) [s] | Prothrombin Times (normal human plasma [1]; inhibitor 500 nM) [s] | Prothrombin Times (normal human plasma [1]; inhibitor 750 nM) [s] | Prothrombin Times (normal human plasma [1]; inhibitor 1000 nM) [s] | Percent Activity (Human thrombin; inhibitor 5 nM) [%] | stability in phosphate buffer at pH 7.5 (inhibitory activity) [2] | Calc. Concentration 2 × APTT (normal human plasma [3]) [nM] | Activated Partial Thromboplastin Times (normal human plasma [3]; inhibitor 125 nM) [s] | Activated Partial Thromboplastin Times (normal human plasma [3]; inhibitor 200 nM) [s] | Activated Partial Thromboplastin Times (normal human plasma [3]; inhibitor 250 nM) [s] | Activated Partial Thromboplastin Times (normal human plasma [3]; inhibitor 300 nM) [s] | Activated Partial Thromboplastin Times (normal human plasma [3]; inhibitor 350 nM) [s] | Clotting Time ([4]; incubation in human plasma 0 h) [s] | Clotting Time [4, 6] [s] | Clotting Time ([4]; incubation in human plasma 1 h) [s] | Clotting Time ([4]; incubation in human plasma 2 h) [s] | Clotting Time ([4]; incubation in human plasma 4 h) [s] | Clotting Time [4, 7] [s] | also measured
CC(C)(C)OC(=O)NC(Cc1ccccc1)C(=O)N1CCCC1C(=O)NC(CCCN=C(N)N)B1OC2CC3CC(C3(C)C)C2(C)O1.O=S(=O)(O)c1ccccc1 (stereo not drawn) [A, Boc-(D)Phe-Pro-boroArg-C10 H16.benzene sulfonic acid] | 800 | 16.4 | 17.1 | 21.5 | 26.7 | > 200 | 3 | little loss of inhibitor activity | 230 | 36.6 | 40.2 | 81.2 | 113.3 | 128.7 | 81.2 | 84.7 | 79.7 | 86.7 | 98.2 | 92.2 | Prothrombin Times (normal human plasma [1]; inhibitor 875 nM): 40.1 s; Percent Thrombin activity [2, 5]: 3.3%; Percent Thrombin activity ([2]; 6.5 hr in 0.20 M sodium phosphate buffer pH 7.5, room temperature): 1.6%; Percent Thrombin activity ([2]; 24 hr in 0.20 M sodium phosphate buffer pH 7.5, room temperature): 0.8%; Percent Inhibition (Sprague Dawley CD Rats): 59%
CC1(C)C2CC3OB(C(CCCN=C(N)N)NC(=O)C4CCCN4C(=O)C(N)Cc4ccccc4)OC3(C)C1C2.Cl.Cl (stereo not drawn) [B, H-(D)Phe-Pro-boroArg-C10 H16.2HCl] | 460 | 20.1 | 22.5 | 33.8 | 85.3 | > 250 | 7 | loses its biological activity over a period of an hour | 170 | 44.2 | 71.5 | 158.7 | 169.7 | 249.7 | 152.2 | 157.7 | 163.7 | 152.8 | 157.7 | 109.3 | Prothrombin Times (normal human plasma [1]; inhibitor 625 nM): 46.5 s; Percent Thrombin activity [2, 5]: 2.0%; Percent Thrombin activity ([2]; 0.5 hr in 0.20 M sodium phosphate buffer pH 7.5, room temperature): 15%; Percent Thrombin activity ([2]; 1 hr in 0.20 M sodium phosphate buffer pH 7.5, room temperature): 100%; stability in phosphate buffer at pH 7.5 (inhibitory activity) ([2]; listed as H-(D)Phe-Pro-boroArg-C10 H16): lost inhibitory activity within one hour; Activated Partial Thromboplastin Times (normal human plasma [3]; inhibitor 62.5 nM): 36.5 s; Percent Activity (Human plasma kallikrein): 61%; stability in human plasma (inhibitor activity by clotting time) ([4]; incubation with plasma): lost activity after 24 h
CC(C)(C)OC(=O)N[C@H](Cc1ccccc1)C(=O)N1CCC[C@H]1C(=O)N[C@H](C=O)CCCNC(=N)N [Boc-(D)Phe-Pro-Arg-H] |  |  |  |  |  |  |  |  |  |  |  |  |  |  |  |  |  |  |  |  | size of venous thrombosis (rats): reduces the size of venous thrombosis
Br.CC(C)(C)OC(=O)NC(Cc1ccccc1)C(=O)N1CCCC1C(=O)NC(CCCSC(=N)N)B1OC2CC3CC(C3(C)C)C2(C)O1 (stereo not drawn) [C, Boc-(D)Phe-Pro-boroIrg-C10 H16.HBr] | 650 | 16.8 | 20.8 | 27.2 | 44 | 152.7 | 3 | little loss of inhibitor activity | 200 | 46.9 | 67 | 160 | 197.8 | 301.8 | 203.2 | 207.2 | 214.2 | 203.7 | 209.7 | 248.7 | Activated Partial Thromboplastin Times (normal human plasma [3]; inhibitor 62.5 nM): 39.2 s; Percent Inhibition (Sprague Dawley CD Rats): 76%
CC(C)(C)OC(=O)N[C@H](Cc1ccccc1)C(=O)N[C@@H](Cc1ccccc1)C(=O)N[C@@H](CCCNC(=N)N)B1OC2CC3CC(C3(C)C)C2(C)O1.O=S(=O)(O)c1ccccc1 (stereo partly drawn) [E, Boc-(D)Phe-Phe-boroArg-C10 H16.benzene sulfonic acid] | 2600 |  |  | 19.8 | 22 | 29.3 |  |  | 375 | 40.5 | 43.6 |  |  | 54.8 | 63.2 | 73.2 | 66.2 | 67.7 | 58.2 | 64.7 | Prothrombin Times (normal human plasma [1]; inhibitor 2000 nM): 39 s; Prothrombin Times (normal human plasma [1]; inhibitor 4000 nM): 70.8 s; Percent Activity (Human thrombin; inhibitor 10 nM): 32%; Activated Partial Thromboplastin Times (normal human plasma [3]; inhibitor 50 nM): 36.8 s; Activated Partial Thromboplastin Times (normal human plasma [3]; inhibitor 275 nM): 52.8 s; Activated Partial Thromboplastin Times (normal human plasma [3]; inhibitor 550 nM): 61.3 s; Percent Activity (Human plasma kallikrein): 5.2%; Percent Inhibition (Sprague Dawley CD Rats): 82%; Clotting Time ([4]; incubation in human plasma 3 h): 61.7 s; Clotting Time ([4]; incubation in human plasma 5 h): 61.3 s; Clotting Time ([4]; incubation in human plasma 6 h): 57.3 s; Clotting Time ([4]; incubation in human plasma 48 h): 58.7 s
N=C(N)NCCC[C@@H](C=O)NC(=O)[C@@H]1CCCN1C(=O)[C@H](N)Cc1ccccc1 [H-(D)Phe-Pro-Arg-H] |  |  |  |  |  |  |  |  |  |  |  |  |  |  |  |  |  |  |  |  | pKi (thrombin): 7.12
N=C(N)NCCC[C@H](NC(=O)[C@@H]1CCCN1C(=O)[C@H](N)Cc1ccccc1)C(=O)CCl [H-(D)Phe-Pro-ArgCH2 Cl] |  |  |  |  |  |  |  |  |  |  |  |  |  |  |  |  |  |  |  |  | prevention of coronary thrombosis (rabbit): effective in the prevention of coronary thrombosis
